# Data published in PubChem BioAssay (NCI).
#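 Test compounds were applied to cells in 96-well plates for 48 hours at 5 doses. GI50: concentration for 50% inhibition of growth. TGI: total growth inhibition.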
# What was measured:
# Test in all cases: inhibition of tumour cell growth, NCI panel, 48 h
# [1] = tested on: A549 NSCLC
# [2] = tested on: SF-539 CNS
# [3] = tested on: NCI/ADR-RES ovarian
# [4] = tested on: HCC-2998 colon
# [5] = tested on: T-47D breast
# [6] = tested on: U251 CNS
# [7] = tested on: NCI-H23 lung
# [8] = tested on: K-562 leukemia
# [9] = tested on: HS 578T breast
# [10] = tested on: SK-MEL-28 melanoma
# [11] = tested on: UO-31 renal
# [12] = tested on: SK-MEL-2 melanoma
# [13] = tested on: SW-620 colon
# [14] = tested on: DU-145 prostate
# [15] = tested on: M14 melanoma
# [16] = tested on: HCT-15 colon
# [17] = tested on: SNB-75 CNS
# [18] = tested on: NCI-H460 lung
# [19] = tested on: UACC-257 melanoma
# [20] = tested on: MALME-3M melanoma
# [21] = tested on: TK-10 renal
# [22] = tested on: UACC-62 melanoma
# [23] = tested on: MOLT-4 leukemia
# [24] = tested on: A498 renal
# [25] = tested on: NCI-H226 lung
# [26] = tested on: SR leukemia
# [27] = tested on: HCT-116 colon
# [28] = tested on: HT29 colon
# [29] = tested on: CCRF-CEM leukemia
# [30] = tested on: RXF 393 renal
# [31] = tested on: OVCAR-4 ovarian
# [32] = tested on: SF-268 CNS
# [33] = tested on: MDA-MB-231 breast
# [34] = tested on: MCF7 breast
# [35] = tested on: HOP-92 NSCLC
# [36] = tested on: OVCAR-5 ovarian
# [37] = tested on: KM12 colon
# [38] = tested on: COLO 205 colon
# [39] = tested on: ACHN renal
# [40] = tested on: SNB-19 CNS
# [41] = tested on: SF-295 CNS
# [42] = tested on: RPMI-8226 leukemia
# [43] = tested on: OVCAR-3 ovarian
# [44] = tested on: LOX IMVI melanoma
# [45] = tested on: 786-0 renal
# [46] = tested on: SK-OV-3 ovarian
# [47] = tested on: PC-3 prostate
# [48] = tested on: SN12C renal
# [49] = tested on: OVCAR-8 ovarian
# [50] = tested on: NCI-H522 lung
# [51] = tested on: IGROV1 ovarian
# [52] = tested on: MDA-MB-435
# [53] = tested on: HL-60(TB) leukemia
# [54] = tested on: CAKI-1 renal
# [55] = tested on: BT-549 breast
# [56] = tested on: SK-MEL-5 melanoma
# [57] = tested on: HOP-62 NSCLC
smiles,measurement,setting,value
OCc1ccc(N(Cc2ccc(F)cc2)CC2CC2)cc1Cl,GI50,[1],3.16 µM
same,TGI,[1],16.9 µM
same,GI50,[2],14.7 µM
same,TGI,[2],28.2 µM
same,GI50,[3],12.1 µM
same,TGI,[3],28.8 µM
same,GI50,[4],8.82 µM
same,TGI,[4],22.4 µM
same,GI50,[5],0.271 µM
same,TGI,[5],2.86 µM
same,GI50,[6],1.48 µM
same,TGI,[6],14 µM
same,GI50,[7],4.74 µM
same,TGI,[7],20.2 µM
same,GI50,[8],3.12 µM
same,TGI,[8],17.8 µM
same,GI50,[9],14.7 µM
same,TGI,[9],38.9 µM
same,GI50,[10],13.1 µM
same,TGI,[10],25.9 µM
same,GI50,[11],3.43 µM
same,TGI,[11],15.6 µM
same,GI50,[12],5.39 µM
same,TGI,[12],19 µM
same,GI50,[13],2.38 µM
same,TGI,[13],16.2 µM
same,GI50,[14],13.3 µM
same,TGI,[14],26.4 µM
same,GI50,[15],14.5 µM
same,TGI,[15],29.8 µM
same,GI50,[16],10.3 µM
same,TGI,[16],22.9 µM
same,GI50,[17],10.8 µM
same,TGI,[17],23.1 µM
same,GI50,[18],0.57 µM
same,TGI,[18],9.47 µM
same,GI50,[19],0.228 µM
same,TGI,[19],1.03 µM
same,GI50,[20],14.6 µM
same,TGI,[20],29.9 µM
same,GI50,[21],0.0609 µM
same,TGI,[21],0.398 µM
same,GI50,[22],0.263 µM
same,TGI,[22],1.74 µM
same,GI50,[23],13.7 µM
same,TGI,[23],34.9 µM
same,GI50,[24],0.0363 µM
same,TGI,[24],0.154 µM
same,GI50,[25],0.0419 µM
same,TGI,[25],0.0943 µM
same,GI50,[26],13.4 µM
same,TGI,[26],34 µM
same,GI50,[27],0.254 µM
same,TGI,[27],11 µM
same,GI50,[28],6.49 µM
same,TGI,[28],20.3 µM
same,GI50,[29],15.6 µM
same,TGI,[29],39.9 µM
same,GI50,[30],1.29 µM
same,TGI,[30],8.48 µM
same,GI50,[31],0.511 µM
same,TGI,[31],7.34 µM
same,GI50,[32],14.7 µM
same,TGI,[32],28.7 µM
same,GI50,[33],11.5 µM
same,TGI,[33],24.3 µM
same,GI50,[34],0.585 µM
same,TGI,[34],12.6 µM
same,GI50,[35],1.61 µM
same,TGI,[35],11.3 µM
same,GI50,[36],0.191 µM
same,TGI,[36],0.794 µM
same,GI50,[37],12.9 µM
same,TGI,[37],25.8 µM
same,GI50,[38],5.4 µM
same,TGI,[38],17.4 µM
same,GI50,[39],11.7 µM
same,TGI,[39],24 µM
same,GI50,[40],12.3 µM
same,TGI,[40],25.4 µM
same,GI50,[41],1.2 µM
same,TGI,[41],11.7 µM
same,GI50,[42],5.47 µM
same,TGI,[42],36 µM
same,GI50,[43],1.31 µM
same,TGI,[43],4.94 µM
same,GI50,[44],13.2 µM
same,TGI,[44],26.3 µM
same,GI50,[45],6.8 µM
same,TGI,[45],21.3 µM
same,GI50,[46],10.6 µM
same,TGI,[46],22.7 µM
same,GI50,[47],12.1 µM
same,TGI,[47],25.7 µM
same,GI50,[48],9.04 µM
same,TGI,[48],21.8 µM
same,GI50,[49],11.8 µM
same,TGI,[49],25.3 µM
same,GI50,[50],11.5 µM
same,TGI,[50],26.3 µM
same,GI50,[51],0.176 µM
same,TGI,[51],1.19 µM
same,GI50,[52],15.7 µM
same,TGI,[52],31.2 µM
same,GI50,[53],5.06 µM
same,TGI,[53],26.3 µM
same,GI50,[54],6.54 µM
same,TGI,[54],21.9 µM
same,GI50,[55],14.3 µM
same,TGI,[55],28.2 µM
same,GI50,[56],3.72 µM
same,TGI,[56],16.6 µM
same,GI50,[57],3.09 µM
same,TGI,[57],16.2 µM
